# According to paper PMC6402034 (Biochemical Journal, 2019):
# Experiments:
# [1] = biological target: T1, ALA2 (aminophospholipid ATPase 2) (Arabidopsis thaliana, UniProt P98205)
# T1 sequence (P98205 1-1107): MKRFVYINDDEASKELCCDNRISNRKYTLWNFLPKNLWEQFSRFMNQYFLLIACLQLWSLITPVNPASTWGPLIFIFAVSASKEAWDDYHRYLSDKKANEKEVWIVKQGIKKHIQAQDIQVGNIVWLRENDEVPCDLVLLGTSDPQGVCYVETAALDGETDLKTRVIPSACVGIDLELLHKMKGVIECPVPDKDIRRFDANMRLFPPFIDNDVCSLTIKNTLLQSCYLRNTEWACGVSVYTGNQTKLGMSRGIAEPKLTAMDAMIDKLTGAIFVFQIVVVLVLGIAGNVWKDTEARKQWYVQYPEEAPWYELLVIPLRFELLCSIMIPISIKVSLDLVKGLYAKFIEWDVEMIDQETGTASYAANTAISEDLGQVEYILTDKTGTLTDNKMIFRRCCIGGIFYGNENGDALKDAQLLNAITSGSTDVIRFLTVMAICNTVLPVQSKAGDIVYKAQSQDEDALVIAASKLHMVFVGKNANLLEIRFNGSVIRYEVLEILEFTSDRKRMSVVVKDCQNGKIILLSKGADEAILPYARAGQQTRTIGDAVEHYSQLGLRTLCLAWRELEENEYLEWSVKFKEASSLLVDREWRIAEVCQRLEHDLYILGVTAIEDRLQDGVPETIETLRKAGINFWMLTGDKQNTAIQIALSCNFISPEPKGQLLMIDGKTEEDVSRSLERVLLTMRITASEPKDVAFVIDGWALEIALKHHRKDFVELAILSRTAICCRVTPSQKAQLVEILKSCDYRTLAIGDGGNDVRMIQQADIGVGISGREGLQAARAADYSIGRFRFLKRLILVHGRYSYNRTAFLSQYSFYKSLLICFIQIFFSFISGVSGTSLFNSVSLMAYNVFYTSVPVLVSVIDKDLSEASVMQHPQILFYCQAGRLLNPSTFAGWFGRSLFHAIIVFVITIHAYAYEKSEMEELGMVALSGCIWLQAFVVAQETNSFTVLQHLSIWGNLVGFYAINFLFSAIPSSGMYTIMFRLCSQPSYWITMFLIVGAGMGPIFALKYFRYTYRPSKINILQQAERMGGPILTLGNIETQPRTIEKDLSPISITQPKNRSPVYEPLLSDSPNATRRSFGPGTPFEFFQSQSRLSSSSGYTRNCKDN
# T1 sequence (Q8L8W0 2-350 partner): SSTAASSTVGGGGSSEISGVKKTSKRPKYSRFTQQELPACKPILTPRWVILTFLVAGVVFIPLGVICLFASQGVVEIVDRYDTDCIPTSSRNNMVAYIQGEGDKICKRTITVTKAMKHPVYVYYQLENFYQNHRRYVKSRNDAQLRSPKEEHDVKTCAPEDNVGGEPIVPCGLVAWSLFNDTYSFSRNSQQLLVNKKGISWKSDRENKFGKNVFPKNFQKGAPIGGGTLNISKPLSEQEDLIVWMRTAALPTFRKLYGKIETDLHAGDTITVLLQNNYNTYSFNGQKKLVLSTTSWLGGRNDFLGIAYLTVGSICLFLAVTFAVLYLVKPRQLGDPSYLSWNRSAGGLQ
# [2] = biological target: T1, ALA2 (aminophospholipid ATPase 2); assay: lipid-stimulated ATPase activity of purified complex; type: biochemical
# [3] = biological target: T1, ALA2 (aminophospholipid ATPase 2); assay: as above; type: biochemical; remark: listed apart in the source
smiles,measurement,setting,value
[O]=[V]([OH])([OH])[OH] [orthovanadate],IC50,[1],~22 µM
"CCCCCCCCCCCCCCCC(=O)OC[C@@H](O)COP(=O)(O)OC[C@H](N)C(=O)O [Lyso-PS, 1-hexadecanoyl-sn-glycero-3-phospho-L-serine]",EC50,[2],34 ± 7 µM
"CCCCCCCC/C=C\CCCCCCCC(=O)O[C@H](COC(=O)CCCCCCCCCCCCCCC)COP(=O)(O)OC[C@@H](N)C(=O)O [P-D-S, 1-palmitoyl-2-oleoyl-sn-glycero-3-phospho-D-serine]",lipid-stimulated ATPase activity of purified complex,[3],The stereoisomer phosphatidyl-D-serine (P-D-S) was less than half as effective at stimulating ATPase activity compared with PS
